Measurements as given in patent US5314890A, “1-7 disubstituted xanthine derivatives having antiasthmatic activity, their physiologically acceptable salts, pharmaceutical compositions containing them and process for their preparation” (priority 1990, dated 1994).
Where two headings read alike, the source gives them in different places.

Key:
[1] = test system: anaesthetized guinea pigs (sensitized); experiment: Antagonism toward ovoalbumin induced bronchomotor effects in anaesthetized guinea pigs; format: in vivo, guinea pig; details: 140 μmol/Kg i.v., 15 min before OA aerosol 0.5% for 20 s; for % inhibition of OA-induced bronchospasm referred to control group: N.A. = not active; for changes in pulmonary insufflation pressure after OA aerosol: controls 1.80 ± 0.15 KPa
Experimental: Antagonism toward ovoalbumin induced bronchomotor effects in anaesthetized guinea pigs.
Anaesthetized guinea pigs (sensitized with 100 mg/Kg s.c. plus 100 mg/Kg i.p. of ovoalbumin (OA) 14 days before tests) were used as described previously although bronchospasm was produced by OA intratracheal aerosol administration (0.5% for 20 s.).
Antibronchospastic activity was expressed as changes in pulmonary insufflation pressure (KPa) after OA aerosol administration and as inhibition percentage referred to control group.

male Swiss mice [2] = experiment: Pentylentetrazol-induced lethality in mice; format: in vivo; details: 0.55 mmol/kg orally, 1 h before PTZ (60-75 mg/kg i.p.); controls 10%
Experimental: The drugs were administered orally (0.55 mmol/kg) in a volume of 20 ml/kg 1 h before PTZ. CNS excitation was valued as increase of PTZ mortality.

male Swiss mice [3] = experiment: Chlordiazepoxide-induced sleep in mice; format: in vivo, mouse; details: 0.55 mmol/kg orally, 1 h before CDO (100 mg/kg i.p.); controls 27.1 ± 3.5 min; * p < 0.01
Experimental: Starved (20 h) male Swiss mice (20 g body weight) were injected with chlordiazepoxide (CDO) (100 mg/kg i.p.) and the duration of the induced sleep assessed. Sleeping time was defined as the time elapsing from the loss to the recovery of the righting reflex. The drugs were administered orally (0.55 mmol/kg) in a volume of 20 ml/kg 1 h before CDO. CNS excitation was valued as decrease in sleeping time (Table 4).

[4] = Acute oral toxicity in mice; details: mouse, in vivo, starved male Swiss mice, observed 10 days, Litchfield and Wilcoxon
Experimental: Starved (18 h) male Swiss mice (20 g weight) received drugs orally (0.2 ml/10 g weight).
Death and symptoms were evaluated LD50 was obtained according to Litchfield and Wilcoxon (J. Pharm. Expt. Ther. 96, 99, 1949).

[5] = test system: isolated guinea pig bronchi; experiment: "In vitro" antibronchospastic activity in isolated guinea pig bronchi; format: cell-based; details: Cavia porcellus
Experimental: A steady tonic bronchomotor response was produced by administration of carbachol (0.3 μM) or capsaicin (0.3 μM, in presence of thiorphan 10 μM) on which a concentration-response curve with the various xanthine derivatives was carried out.

[6] = test system: anaesthetized guinea pigs; experiment: Antagonism toward acetylcholine- and capsaicin-induced bronchomotor effects in anaesthetized guinea-pig; format: in vivo; details: 70 μmol/kg i.v., mean ± s.e.m.; for inhibition percentage of acetylcholine (Ach) induced bronchospasm: 15 min before acetylcholine 25 μg/kg; for inhibition percentage of capsaicin (Caps) induced bronchospasm: 15 min before capsaicin 2.5 μg/kg
Experimental: Anaesthetized guinea-pig were used D-Tubocurarine (3 mg/kg i.v.) was administered, and a mechanic ventilation (60 strokes/min) with a pump through a tracheal cannula was carried out Drugs were administered intravenously in a volume less than 0.5 ml/kg through a jugular cannula. Acetylcholine (25 μg/kg) or capsaicin (2.5 μg/kg) administration evoked a powerful and transient increase in tracheal insufflation pressure which was repeatable after 30 min. […] Antibronchospastic activity was expressed as inhibition percentage referred to the first increase of tracheal insufflation pressure.

sensitized guinea-pigs = experiment: Antagonism toward antigen-induced bronchospasm in sensitized guinea-pigs; format: in vivo, guinea pig; details: 0.55 mmol/kg orally, 1 hour before 0.5% ovalbumin aerosol; mean ± s.e.m.; control 8.4 ± 0.8; * p < 0.05
Experimental: Guinea-pigs (sensitized with 100 mg/kg s.c. plus 100 mg/kg i.p. of ovalbumin 14 days before) (Herxheimer and Streseman-Arch. Int. Pharmacodyn. Ther. 125, 265; 1960) were challenged by an aerosol of 0.5% ovalbumin, for a period of 10 sec. in a closed chamber.
In a first set of experiments, number of aerosol-induced bronchospasms was registered in control conditions or 1 hr after the oral administration of testing substances.

[7] = Antibronchospastic / bronchodilatory activity, general statement (laboratory tests by the Applicant)
[8] = Goodman and Gilman, 1985; cited from earlier work
[9] = isolated guinea pig bronchi, capsaicin 0.3 μM with thiorphan 10 μM, 95% C.L. in brackets, read-out: IC50, capsaicin-induced tone
[10] = isolated guinea pig bronchi, carbachol 0.3 μM, 95% C.L. in brackets, read-out: IC50, carbachol-induced tone

Compound	% inhibition of OA-induced bronchospasm referred to control group [1] [%]	changes in pulmonary insufflation pressure after OA aerosol [1] [KPa]	PTZ test mortality rate (male Swiss mice [2]) [%]	CDO test sleeping-time (male Swiss mice [3]) [min]	LD50 at 240 h [4] [mg/kg]	IC50 [5, 9] [µM]	IC50 [5, 10] [µM]	inhibition percentage of acetylcholine (Ach) induced bronchospasm [6] [%]	inhibition percentage of capsaicin (Caps) induced bronchospasm [6] [%]	number of bronchospasms recorded in 5 minutes (bronchospasm/min) (sensitized guinea-pigs)	IC50 ([5]; read-out: IC50, capsaicin-induced tone) [µM]	IC50 ([5]; read-out: IC50, carbachol-induced tone) [µM]	antibronchospastic / bronchodilatory activity (in words) [7]	side effects (in words) [8]
Cn1c(=O)[nH]c2ncn(CC(C)(C)O)c2c1=O [1-methyl-7-(2-methyl-2-hydroxy-propyl)-xanthine]	36	1.15 ± 0.15	0	64.2 ± 12.8										
CC(C)Cn1cnc2[nH]c(=O)n(C)c(=O)c21 [1-methyl-7-isobutyl-xanthine]	86	0.25 ± 0.08	20	26.1 ± 3.3	303	21	31	54 ± 5	52 ± 3	5.0 ± 1.1				
Cn1c(=O)[nH]c2ncn(C)c2c1=O [Paraxanthine, 1,7-dimethyl-xanthine]			82	2.3 ± 1.5							82	135	does not show any significant antibronchospastic activity	
Cn1c(=O)c2[nH]cnc2n(C)c1=O [Theophylline, 1,3-dimethyl-xanthine, reference compound]				7.8 ± 2.2		40	92	51 ± 8	51 ± 7	4.6 ± 1.2				side effects on the cardiovascular system and on the central nervous system
